Read-outs that look alike come from different tables or passages of the source.
Experiments:
GSK3b = GSK3b (Homo sapiens, UniProt P49841); assay: Selectivity screen GSK3b; type: biochemical; details: 1 µM inhibitor, mean
Experimental: (§1) For the in vitro kinase assay, JAK3 (5–20 mU diluted in 50 mM Tris pH 7.5, 0.1 mM EGTA, 0.05% β-mercaptoethanol, 1 mg/ml BSA) was assayed against PDKtide ([…]) in a final volume of 25.5 µl containing 50 mM Tris pH 7.5, 0.1 mM EGTA, 0.05% β-mercaptoethanol, 100 µM substrate peptide, 10 mM magnesium acetate and 0.02 mM [33P-γ-ATP] (50–1000 cpm/pmole) and incubated for 30 min at room temperature. Assays were started by the addition of the ATP and stopped by addition of 5 µl of 0.5 M (3%) orthophosphoric acid and then harvested onto P81 Unifilter plates with a wash buffer of 50 mM orthophosphoric acid. To determine the Km for ATP, assays were run using 1, 5, 10, 20, 50, 100, 200, 400, 500 μM ATP and Km derived by non-linear regression fitting to the Michaelis–Menten equation v = Vmax[S]/(Km + [S]). IC50 values for inhibitors via non-linear regression using a parameter model: Y = Bottom + (Top–Bottom)/(1 + (IC50/X)^HillSlope). Non-linear regression was carried out in Prism (version 8). In vitro selectivity screen was carried out as described previously.

NEK2a = NEK2a (Homo sapiens, UniProt P51955); assay: Selectivity screen NEK2a; type: biochemical; details: 1 µM inhibitor, mean
NEK2a, sequence (P51955 whole entry): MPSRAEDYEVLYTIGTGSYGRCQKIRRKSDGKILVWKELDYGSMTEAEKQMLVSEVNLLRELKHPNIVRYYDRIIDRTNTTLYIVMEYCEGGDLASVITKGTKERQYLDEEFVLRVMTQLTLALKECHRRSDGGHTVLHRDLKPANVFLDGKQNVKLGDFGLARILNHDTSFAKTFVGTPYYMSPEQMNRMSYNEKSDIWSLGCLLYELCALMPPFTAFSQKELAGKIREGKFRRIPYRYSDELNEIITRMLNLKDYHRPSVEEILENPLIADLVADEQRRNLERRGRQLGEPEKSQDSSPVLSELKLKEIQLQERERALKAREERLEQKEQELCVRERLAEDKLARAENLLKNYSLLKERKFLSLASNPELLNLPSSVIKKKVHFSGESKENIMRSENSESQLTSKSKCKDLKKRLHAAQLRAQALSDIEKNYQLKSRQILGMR
Experimental: as §1

NUAK1 = NUAK1 (Homo sapiens, UniProt O60285); assay: Selectivity screen NUAK1; type: biochemical; details: 1 µM inhibitor, mean
Experimental: as §1

MLK1 = MLK1 (Homo sapiens, UniProt P80192); assay: Selectivity screen MLK1; type: biochemical; details: 1 µM inhibitor, mean
Experimental: as §1

Lck = Lck (Homo sapiens, UniProt P06239); assay: Selectivity screen Lck; type: biochemical; details: 1 µM inhibitor, mean
Lck, sequence (P06239 whole entry): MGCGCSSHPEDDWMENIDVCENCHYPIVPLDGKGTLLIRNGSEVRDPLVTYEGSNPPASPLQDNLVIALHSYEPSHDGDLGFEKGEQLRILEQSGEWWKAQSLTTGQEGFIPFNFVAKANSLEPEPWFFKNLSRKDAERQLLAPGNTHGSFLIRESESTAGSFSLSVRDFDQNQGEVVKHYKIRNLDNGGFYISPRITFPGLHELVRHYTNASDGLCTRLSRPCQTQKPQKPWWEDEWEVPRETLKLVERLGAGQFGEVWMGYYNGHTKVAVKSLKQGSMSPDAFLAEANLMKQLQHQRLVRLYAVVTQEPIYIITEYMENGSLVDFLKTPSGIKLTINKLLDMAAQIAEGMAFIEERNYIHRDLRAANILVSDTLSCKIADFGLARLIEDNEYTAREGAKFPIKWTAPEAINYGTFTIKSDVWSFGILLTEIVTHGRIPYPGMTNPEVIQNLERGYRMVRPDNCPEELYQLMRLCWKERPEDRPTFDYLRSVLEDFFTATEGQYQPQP
Experimental: as §1

BRSK1 = BRSK1 (Homo sapiens, UniProt Q8TDC3); assay: Selectivity screen BRSK1; type: biochemical; details: 1 µM inhibitor, mean
PDK1 = PDK1 (Homo sapiens, UniProt O15530); assay: Selectivity screen PDK1; type: biochemical; details: 1 µM inhibitor, mean
PDK1, sequence (O15530 whole entry): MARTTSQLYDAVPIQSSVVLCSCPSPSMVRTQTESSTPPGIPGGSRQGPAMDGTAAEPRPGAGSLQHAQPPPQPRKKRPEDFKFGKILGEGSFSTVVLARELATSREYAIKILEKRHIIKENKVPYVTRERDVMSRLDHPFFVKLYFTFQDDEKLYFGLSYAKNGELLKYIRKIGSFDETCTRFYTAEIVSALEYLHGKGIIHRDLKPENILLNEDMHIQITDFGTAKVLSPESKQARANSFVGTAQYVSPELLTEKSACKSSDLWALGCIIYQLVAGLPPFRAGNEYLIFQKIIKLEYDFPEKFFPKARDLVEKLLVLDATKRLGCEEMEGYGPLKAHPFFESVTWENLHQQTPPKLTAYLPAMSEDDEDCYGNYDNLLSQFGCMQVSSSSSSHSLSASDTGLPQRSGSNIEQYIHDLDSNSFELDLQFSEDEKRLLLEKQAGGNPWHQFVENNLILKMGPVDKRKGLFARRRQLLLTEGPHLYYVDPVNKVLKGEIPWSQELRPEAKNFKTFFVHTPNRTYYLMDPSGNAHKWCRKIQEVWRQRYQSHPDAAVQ
Experimental: as §1

MST4 = MST4 (Homo sapiens, UniProt Q9P289); assay: Selectivity screen MST4; type: biochemical; details: 1 µM inhibitor, mean
Experimental: as §1

HER4 = HER4 (Homo sapiens, UniProt Q15303); assay: Selectivity screen HER4; type: biochemical; details: 1 µM inhibitor, mean
Experimental: as §1

HIPK3 = HIPK3 (Homo sapiens, UniProt Q9H422); assay: Selectivity screen HIPK3; type: biochemical; details: 1 µM inhibitor, mean
HIPK3, sequence (Q9H422 whole entry): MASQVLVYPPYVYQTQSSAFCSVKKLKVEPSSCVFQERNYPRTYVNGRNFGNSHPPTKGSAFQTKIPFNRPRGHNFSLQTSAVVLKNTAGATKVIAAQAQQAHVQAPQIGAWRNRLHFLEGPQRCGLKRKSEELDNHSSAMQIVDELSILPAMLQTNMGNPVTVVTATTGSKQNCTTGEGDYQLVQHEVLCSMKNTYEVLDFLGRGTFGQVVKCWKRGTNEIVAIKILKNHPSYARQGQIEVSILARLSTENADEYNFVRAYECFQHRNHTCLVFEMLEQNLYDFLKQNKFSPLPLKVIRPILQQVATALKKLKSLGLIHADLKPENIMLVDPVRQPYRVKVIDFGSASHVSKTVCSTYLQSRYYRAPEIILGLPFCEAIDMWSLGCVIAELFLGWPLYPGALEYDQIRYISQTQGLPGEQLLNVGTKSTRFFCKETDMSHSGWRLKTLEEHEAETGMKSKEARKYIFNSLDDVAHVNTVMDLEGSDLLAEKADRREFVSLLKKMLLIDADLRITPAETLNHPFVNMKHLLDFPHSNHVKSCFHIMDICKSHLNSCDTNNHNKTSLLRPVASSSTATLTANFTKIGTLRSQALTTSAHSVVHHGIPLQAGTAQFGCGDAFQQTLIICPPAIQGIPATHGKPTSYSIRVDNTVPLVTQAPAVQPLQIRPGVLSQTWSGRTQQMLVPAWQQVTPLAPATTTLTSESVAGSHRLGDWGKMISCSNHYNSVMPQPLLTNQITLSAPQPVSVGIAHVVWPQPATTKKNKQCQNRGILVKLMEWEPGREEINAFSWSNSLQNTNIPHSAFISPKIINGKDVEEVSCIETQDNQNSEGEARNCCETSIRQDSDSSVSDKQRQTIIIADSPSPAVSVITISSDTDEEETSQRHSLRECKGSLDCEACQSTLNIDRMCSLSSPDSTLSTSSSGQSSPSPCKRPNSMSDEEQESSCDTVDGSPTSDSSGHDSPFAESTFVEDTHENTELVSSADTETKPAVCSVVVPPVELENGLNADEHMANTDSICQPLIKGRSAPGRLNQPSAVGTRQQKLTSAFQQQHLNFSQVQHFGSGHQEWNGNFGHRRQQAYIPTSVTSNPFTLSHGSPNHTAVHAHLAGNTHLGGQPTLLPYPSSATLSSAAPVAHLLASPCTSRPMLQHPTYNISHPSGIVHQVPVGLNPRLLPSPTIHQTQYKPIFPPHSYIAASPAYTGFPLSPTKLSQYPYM
Experimental: as §1

IKKe = IKKe (Homo sapiens, UniProt Q14164); assay: Selectivity screen IKKe; type: biochemical; details: 1 µM inhibitor, mean
Experimental: as §1

JNK3 = JNK3 (Homo sapiens, UniProt P53779); assay: Selectivity screen JNK3; type: biochemical; details: 1 µM inhibitor, mean
JNK3, sequence (P53779 whole entry): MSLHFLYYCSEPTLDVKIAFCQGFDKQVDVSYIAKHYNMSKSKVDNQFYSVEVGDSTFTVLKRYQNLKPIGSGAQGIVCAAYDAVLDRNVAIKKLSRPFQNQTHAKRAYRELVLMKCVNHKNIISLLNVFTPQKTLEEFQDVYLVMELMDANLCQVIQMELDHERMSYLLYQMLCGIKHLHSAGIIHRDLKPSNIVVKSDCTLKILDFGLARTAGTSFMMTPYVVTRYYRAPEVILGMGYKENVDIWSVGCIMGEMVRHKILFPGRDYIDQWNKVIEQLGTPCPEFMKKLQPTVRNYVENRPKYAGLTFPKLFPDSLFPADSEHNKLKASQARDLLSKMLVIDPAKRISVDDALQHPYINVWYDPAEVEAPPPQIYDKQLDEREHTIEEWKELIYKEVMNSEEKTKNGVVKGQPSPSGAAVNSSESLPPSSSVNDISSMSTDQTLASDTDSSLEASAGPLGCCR
Experimental: as §1

EPH-B3 = EPH-B3 (Homo sapiens, UniProt P54753); assay: Selectivity screen EPH-B3; type: biochemical; details: 1 µM inhibitor, mean
Experimental: as §1

p38b MAPK = p38b MAPK (Homo sapiens, UniProt Q15759); assay: Selectivity screen p38b MAPK; type: biochemical; details: 1 µM inhibitor, mean
Experimental: as §1

SGK1 = SGK1 (Homo sapiens, UniProt O00141); assay: Selectivity screen SGK1; type: biochemical; details: 1 µM inhibitor, mean
Experimental: as §1

MARK2 = MARK2 (Homo sapiens, UniProt Q7KZI7); assay: Selectivity screen MARK2; type: biochemical; details: 1 µM inhibitor, mean
Experimental: as §1

TYK2 = details: read-out: In vitro IC50 TYK2, cited from earlier work
MST3 = MST3 (Homo sapiens, UniProt Q9Y6E0); assay: Selectivity screen MST3; type: biochemical; details: 1 µM inhibitor, mean
MST3, sequence (Q9Y6E0 whole entry): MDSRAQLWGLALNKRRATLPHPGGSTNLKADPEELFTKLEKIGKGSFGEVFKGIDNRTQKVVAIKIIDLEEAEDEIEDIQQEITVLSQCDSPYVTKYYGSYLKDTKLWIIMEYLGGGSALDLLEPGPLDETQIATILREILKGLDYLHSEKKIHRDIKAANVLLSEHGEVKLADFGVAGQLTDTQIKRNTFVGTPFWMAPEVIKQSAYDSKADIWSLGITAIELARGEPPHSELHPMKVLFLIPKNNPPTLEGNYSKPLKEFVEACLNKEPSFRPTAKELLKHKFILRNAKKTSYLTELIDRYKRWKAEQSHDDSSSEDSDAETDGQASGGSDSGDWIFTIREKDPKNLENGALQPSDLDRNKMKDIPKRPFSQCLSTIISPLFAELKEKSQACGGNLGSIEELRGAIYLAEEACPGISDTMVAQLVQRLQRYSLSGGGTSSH
Experimental: as §1

ABL = ABL (Homo sapiens, UniProt P00519); assay: Selectivity screen ABL; type: biochemical; details: 1 µM inhibitor, mean
Experimental: as §1

MAPKAP-K3 = MAPKAP-K3 (Homo sapiens, UniProt Q16644); assay: Selectivity screen MAPKAP-K3; type: biochemical; details: 1 µM inhibitor, mean
MAPKAP-K3, sequence (Q16644 whole entry): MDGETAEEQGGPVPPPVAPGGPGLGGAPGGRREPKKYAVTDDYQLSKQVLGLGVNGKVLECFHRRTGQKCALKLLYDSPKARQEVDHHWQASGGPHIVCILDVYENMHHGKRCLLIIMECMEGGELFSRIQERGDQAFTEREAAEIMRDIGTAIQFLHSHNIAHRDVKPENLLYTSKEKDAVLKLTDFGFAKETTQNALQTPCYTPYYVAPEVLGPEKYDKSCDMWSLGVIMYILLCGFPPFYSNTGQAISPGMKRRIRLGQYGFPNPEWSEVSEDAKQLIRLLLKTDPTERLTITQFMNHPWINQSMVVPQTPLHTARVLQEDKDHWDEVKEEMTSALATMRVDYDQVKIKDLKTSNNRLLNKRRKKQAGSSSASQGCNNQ
Experimental: as §1

CSK = CSK (Homo sapiens, UniProt P41240); assay: Selectivity screen CSK; type: biochemical; details: 1 µM inhibitor, mean
Experimental: as §1

[1] = system: IL-4 induced STAT6 phosphorylation in BMDMs from JAK3 Cys905Ser knockin mice; assay: IL-4 induced STAT6 phosphorylation in JAK3 Cys905Ser knockin BMDMs (immunoblot); type: cell-based, mouse; details: for IC50: Mus musculus, BMDM, 0.5 h, 10 ng/ml IL-4 30 min, pSTAT6 Tyr641 immunoblot, two independent experiments
Experimental: (§2) Figure 3 Effect of JAK3 inhibitors on IL-4 induced STAT6 phosphorylation. BMDMs were isolated from wild type and JAK3 Cys905Ser knockin mice. Cells were incubated with the indicated concentrations of inhibitor before stimulation for 30 min with 10 ng/ml IL-4. Cells were lysed and the levels of STAT6 phosphorylated at Tyr641 were assessed by immunoblotting. Levels of ERK1/2 were determined as a loading control.
(§3) Bone marrow derived macrophages (BMDMs) were cultured as described. Briefly, bone marrow was flushed in PBS from the femurs and tibias of mice. Cells were cultured on bacterial grade plastic for 7 days at 37 °C, 5% CO2. Cells were then detached using Versene (Gibco), re-plated on tissue culture plastic in BMDM media (in DMEM supplemented with 10% heat inactivated FBS (Labtech), 2 mM L-glutamine, 100 U/ml penicillin G, 100 μg/ml streptomycin and 0.25 μg/ml amphotericin, 5 ng/ml M-CSF) and used within 48 h. Where indicated cells were stimulated with 10 ng/ml IL-4, 10 ng/ml GM-CSF, 10 ng/ml IL-10 or 10 ng/ml IFNβ. All cytokines were from PeproTech.
(§4) Cells were lysed directly into SDS sample buffer and aliquots run on 10% polyacrylamide gels using standard methods. Proteins were transferred onto nitrocellulose membranes, and specific proteins were detected by immunoblotting. Antibodies against tyrosine phosphorylated STATs were from Cell Signaling Technology (phospho-STAT1 #9167, phospho-STAT3 #9131, phospho-STAT5 #4322 and phospho-STAT6 #9361). The total ERK1/2 antibody used as a loading control was also from cell Signaling Technology (#4695). HRP-conjugated secondary antibodies were obtained from Pierce. Bands were detected using Clarity ECL reagents from BioRad and imaged on a Licor Odyssey Fc system. Quantification was carried out using Licor Image Studio software. After correction for the ERK1/2 levels to account for loading differences, percentage inhibition was calculated relative to the IL-4 stimulated condition. IC50 values were calculated using the same methods as for the in vitro IC50 values.

[2] = system: IL-4 induced STAT6 phosphorylation in wild type BMDMs; assay: IL-4 induced STAT6 phosphorylation in wild type BMDMs (immunoblot); type: cell-based; details: Mus musculus, BMDM, 0.5 h; 10 ng/ml IL-4 30 min, pSTAT6 Tyr641 immunoblot, two independent experiments
Experimental: as §2, §3, §4

PKD1 = PKD1 (Homo sapiens, UniProt Q15139); assay: Selectivity screen PKD1; type: biochemical; details: 1 µM inhibitor, mean
PKD1, sequence (Q15139 whole entry): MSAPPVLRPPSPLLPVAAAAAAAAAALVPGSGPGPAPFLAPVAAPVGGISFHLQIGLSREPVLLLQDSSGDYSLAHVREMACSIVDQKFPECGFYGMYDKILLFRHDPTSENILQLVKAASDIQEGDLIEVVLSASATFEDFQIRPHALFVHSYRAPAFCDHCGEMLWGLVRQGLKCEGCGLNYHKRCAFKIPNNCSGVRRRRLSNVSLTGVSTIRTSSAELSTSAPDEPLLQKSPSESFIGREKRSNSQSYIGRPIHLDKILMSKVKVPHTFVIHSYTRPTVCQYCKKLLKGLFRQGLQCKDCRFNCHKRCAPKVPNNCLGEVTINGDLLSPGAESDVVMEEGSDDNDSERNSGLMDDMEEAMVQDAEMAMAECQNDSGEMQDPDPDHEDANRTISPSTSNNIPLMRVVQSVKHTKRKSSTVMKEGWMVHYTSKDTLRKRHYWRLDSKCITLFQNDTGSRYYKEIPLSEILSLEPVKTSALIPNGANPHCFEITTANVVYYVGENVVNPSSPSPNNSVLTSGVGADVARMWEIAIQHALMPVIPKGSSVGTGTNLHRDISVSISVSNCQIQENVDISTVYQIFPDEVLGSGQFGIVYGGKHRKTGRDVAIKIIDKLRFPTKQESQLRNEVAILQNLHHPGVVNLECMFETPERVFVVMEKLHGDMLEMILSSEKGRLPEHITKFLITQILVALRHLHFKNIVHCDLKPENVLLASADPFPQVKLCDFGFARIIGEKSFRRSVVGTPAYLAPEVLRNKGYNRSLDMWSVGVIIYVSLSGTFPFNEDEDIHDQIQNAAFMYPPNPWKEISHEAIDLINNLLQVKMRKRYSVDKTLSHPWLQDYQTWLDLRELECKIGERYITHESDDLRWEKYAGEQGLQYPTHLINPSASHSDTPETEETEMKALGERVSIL
Experimental: as §1

Row | SMILES | activity remaining in the presence of the inhibitor: GSK3b (GSK3b) | activity remaining in the presence of the inhibitor: NEK2a (NEK2a) | activity remaining in the presence of the inhibitor: NUAK1 (NUAK1) | activity remaining in the presence of the inhibitor: MLK1 (MLK1) | activity remaining in the presence of the inhibitor: Lck (Lck) | activity remaining in the presence of the inhibitor: BRSK1 (BRSK1) | activity remaining in the presence of the inhibitor: PDK1 (PDK1) | activity remaining in the presence of the inhibitor: MST4 (MST4) | activity remaining in the presence of the inhibitor: HER4 (HER4) | activity remaining in the presence of the inhibitor: HIPK3 (HIPK3) | activity remaining in the presence of the inhibitor: IKKe (IKKe) | activity remaining in the presence of the inhibitor: JNK3 (JNK3) | activity remaining in the presence of the inhibitor: EPH-B3 (EPH-B3) | activity remaining in the presence of the inhibitor: p38b MAPK (p38b MAPK) | activity remaining in the presence of the inhibitor: SGK1 (SGK1) | activity remaining in the presence of the inhibitor: MARK2 (MARK2) | IC50 (TYK2; ATP 25 μM) [nM] | activity remaining in the presence of the inhibitor: MST3 (MST3) | IC50 [1] [nM] | IC50 [2] [nM] | further results
1 | C=CC(=O)Nc1cccc(CNc2nc(Nc3ccc(N4CCOCC4)cc3)ncc2Cl)c1 [TL8-52] | 118 | 135 | 3 | 3 | 73 | 86 | 86 | 96 | 31 | 107 | 34 | 69 | 73 | 96 | 89 | 37 | 320 | 97 | 540 | 100 | activity remaining in the presence of the inhibitor: ABL (ABL): 89; activity remaining in the presence of the inhibitor: MAPKAP-K3 (MAPKAP-K3): 62; activity remaining in the presence of the inhibitor: CSK (CSK): 73; activity remaining in the presence of the inhibitor: PKD1 (PKD1): 86
2 | C=CC(=O)Nc1cccc(CNc2nc(Nc3ccc(N4CCN(C)CC4)cc3OC)ncc2Cl)c1 [TL6-144] | 87 | 96 | 4 | 20 | 77 | 103 | 101 | 107 | 9 | 91 | […] | 87 | 77 | 93 | […] | 84 | […] | 99 | […] | 550 | activity remaining in the presence of the inhibitor: ABL (ABL): 87; activity remaining in the presence of the inhibitor: MAPKAP-K3 (MAPKAP-K3): 119; activity remaining in the presence of the inhibitor: CSK (CSK): 113; inhibition of IL-4 induced STAT6 phosphorylation, JAK3 Cys905Ser knockin BMDMs ([1]; 10 μM inhibitor): did not inhibit; activity remaining in the presence of the inhibitor: PKD1 (PKD1): 46
3 | C=CC(=O)N1C[C@H](Nc2ncnc3[nH]ccc23)CC[C@@H]1C [PF-06651600, 1-((2S,5R)-5-((7H-Pyrrolo[2,3-d]pyrimidin-4-yl)amino)-2-methylpiperidin-1-yl)prop-2-en-1-one, reference compound] |  |  |  |  |  |  |  |  |  |  |  |  |  |  |  |  |  |  | > 10000 | 560 | IC50 (TYK2; ATP 12 μM): > 10000 nM

From article PMC8115619, “Generation of a chemical genetic model for JAK3” (Scientific Reports, 2021)
